Experiments:
human CD4+ T cells = test: Human T cell activation assay (CFSE proliferation, cytokine ELISA); assay type: cell-based
Protocol: Enriched human CD4+ T cells and CD8+ T cells were stained with CFSE (1 μM) and stimulated with plate-bound anti-CD3 antibody (3 μg/ml) together with 2, 5, or 10 μg/ml of DD1α-Ig proteins or control Ig proteins. The proliferations of CD4+ T or CD8+ T cells were determined by the percentages of CFSE-labeled CD4+ T or CD8+ T cells at the 72-hour culture. The levels of cytokines IFN-γ and TNF-α in culture supernatant were analyzed by ELISA at the 48-hour culture. […] The proliferation and cytokine production of CD4+ T cells were determined as FIG. 5A. […] The proliferations of CD4+ T cells were determined by percentage of CFSE-diluted CD4+ cells on day 3. The levels of cytokines IFN-γ and IL-2 in culture supernatant were analyzed by ELISA on day 2. […] Data are shown as mean±SD and representative of three experiments.
The proliferations of CD4^+ T cells were determined by percentage of CFSE-diluted CD4^+ cells on day 3.
The cytokine production of CD4^+ T cells were then determined IFN-γ and TNF-alpha levels in culture supernatants on day 2 were analyzed by ELISA.
The amount of Ig protein was kept constant at 10 μg/ml by the addition of control Ig protein. Human CD4+ or CD8+ T cells were purified from freshly isolated PBMCs using CD4+ T Cell Isolation Kit II, human or CD8+ T Cell Isolation Kit, human (Miltenyi Biotec). Mouse CD4+ and CD8+ T cells were purified from splenocytes freshly isolated from mice using CD4+ T Cell Isolation Kit II, mouse or CD8a+ T Cell Isolation Kit II, mouse (Miltenyi Biotec). […] The T cells were labeled with 1 μM CFSE, quenched by cold FBS and incubated in the anti-CD3 & Ig proteins-coated plates. On day 2 after stimulation, supernatant was collected and cytokines were assayed by ELISA. On day 3, cells were stained with anti-CD4-APC (OKT4, eBioscience for human CD4+ T cells; RM4-5, eBioscience for mouse CD4+ T cells) or anti-CD8-APC (SK1, eBioscience for human CD8+ T cells; 53-6.7, eBioscience for mouse CD8+ T cells) and then analyzed for CFSE dilution by flow cytometry.

DD1α = test: Ig fusion protein-pull down assay; assay type: binding, human
DD1α, sequence (Q9H7M9 33-311): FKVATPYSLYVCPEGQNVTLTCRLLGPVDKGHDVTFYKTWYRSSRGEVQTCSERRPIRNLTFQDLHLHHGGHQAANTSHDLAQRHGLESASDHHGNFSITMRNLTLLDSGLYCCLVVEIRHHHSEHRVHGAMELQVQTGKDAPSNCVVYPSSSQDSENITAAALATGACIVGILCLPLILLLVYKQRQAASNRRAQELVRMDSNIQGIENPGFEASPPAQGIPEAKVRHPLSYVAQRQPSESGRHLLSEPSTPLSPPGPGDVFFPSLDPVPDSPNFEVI
Protocol: FIGS. 6A-6E show physical association of DD1α with PD1 but not with PD-L1. (FIG. 6A) Interaction of DD1α with PD1 or DD1α. […] The bound Ig fusion proteins were detected with anti-Ig-APC. Empty vector (pcDNA3.1)-transfected cells stained with Ig proteins are shown as a negative control (gray filled) and other staining is shown as black open. (FIG. 6B) DD1α binds to both DD1α and PD1 on CD4+ T cells. Purified CD4+ T cells from Wt and DD1α−/− mice were assayed for binding to Ig fused DD1α or PD1 proteins. Cells were incubated with DD1α-Ig (open), PD1-Ig (open), or control Ig proteins (gray filled) and the bound Ig fusion proteins were detected by anti-Ig-APC. […] The bound Ig fusion proteins were detected by anti-Ig-APC. Binding amounts were determined by percentage of APC positive cells compared to control Ig protein-bound cells. (FIG. 6C) Ig-pulldown experiments show DD1α interaction with both DD1α and PD1. […] The bead bound proteins were eluted and determined by western blot analysis using anti-HA antibody (asterisks). (FIG. 6D) Ig fusion proteins (control Ig, DD1α-Ig, or PD1-Ig) were incubated with lysates from Nutlin-3-treated MCF7 cells and pulled down using protein A/G agarose. The bead bound proteins were eluted and detected by western blot analysis with anti-DD1α or anti-PD1 antibody (asterisk). (FIG. 6E) p53-mediated induction of PD1 and PD-L1. MCF7 cells were treated by Nutlin-3 (10 μM) for 1 to 3 days. MCF7 cells were transfected with control siRNA or p53 siRNA for 24 hours and treated with CPT (500 nM) or DMSO (control) for 1 and 2 days. The levels of indicated proteins were analyzed by western blot analysis. Total RNAs from control siRNA or p53 siRNA transfected MCF7 cells were assessed for mRNA levels of PD1 or PD-L1 by real-time quantitative PCR. PD1 or PD-L1 mRNA levels were normalized to 36B4 expression and shown as mean±SD (n=3). Protein levels of PD1 and PD-L1 were examined in EJ-p53tet cells in the absence or presence of tetracycline (tet), ZR75-1 cells treated with CPT (500 nM), or A375 cells exposed to 13 Gy ionizing irradiation for the indicated times.
Ig fusion proteins (control Ig, DD1α-Ig, or PD1-Ig) were incubated with lysates from Nutlin-3-treated MCF7 cells and pulled down using proten A/G agarose. The bead bound proteins were eluted and detected by western blot analysis with anti-DD1α or anti-PD1 antibody.
Based on the results that both PD-1 and DD1α receptors on T cells contribute to the co-inhibitory roles for DD1α(FIG. 5), it was tested whether DD1α could physically and functionally associate with PD-1 receptor. […] To confirm the specificity of this interaction, the inventors carried out Ig fusion protein-pull down assays using lysates from PD-1, DD1α, or TIM3-transfected 293T cells. […]

[1] = test system: Jurkat cells expressing DD1α receptor; test: Ig fusion protein binding to Jurkat cells; details: several concentrations; anti-Ig-APC detection
Protocol: Jurkat cells overexpressing DD1alpha (transfected with DD1alpha cDNA) or control Jurkat cells were assayed for binding to Ig-fused DD1α or PD-1 proteins. Cells were incubated with several different concentrations of DD1α-Ig (left panels) or PD1-Ig (right panels), and the bound Ig fusion proteins were detected by anti-Ig-APC. Binding amounts were determined by percentage of APC positive cells.

pull down of endogenous DD1α receptor (DD1α; lysates of Nutlin-3-treated MCF7 cells): detected
Substance: DD1α-Ig: the extracellular region of DD1α fused with the immunoglobulin G Fc segment
T cell activation-induced production of IFN-γ and TNF-α (human CD4+ T cells; human CD4+ and CD8+ T cells, ELISA of culture supernatant): clearly blocked | proliferation of human CD4+ T cells (human CD4+ T cells; plate-bound anti-CD3 3 μg/ml, CFSE, Ig control 92.2%): 47.1% | inhibition of anti-CD3-stimulated human CD4+ T cell proliferation (human CD4+ T cells; plate-bound anti-CD3 3 μg/ml, CFSE, relative to Ig control (92.2% proliferation)): ~45% | CD4+ T cell proliferation stimulated by anti-CD3 (human CD4+ T cells; various concentrations with 3 μg/ml anti-CD3): strongly inhibited | pull down of DD1α (DD1α; lysates from transfected 293T cells): pulled down | binding to Jurkat cells expressing DD1α receptor [1]: bind

Reference: US20170184604A1, “DD1ALPHA RECEPTOR AND USES THEREOF IN IMMUNE DISORDERS” (THE GENERAL HOSPITAL CORPORATION, priority 2014, published 2017)
